The source of these data is US20170027902A1, “Use of a Composition Comprising a Flavonol, A Flavonoid, and a Fatty Acid in the Treatment of Oxidative Injuries Due to Mitochondrial Dysfunction” (priority 2014, published 2017).

For this assay, the system named is primary mouse cortical cultures. As to the kind of experiment: Confocal imaging of calcium transients and mitochondrial membrane potential. It counts as cell-based. Conditions: for number of neurons displaying elevated [Ca2+]c / oscillations: 3 μg/ml (~10 μM); for number / frequency of [Ca2+]c oscillations in cortical neurons: Q 3 μg/ml added after pretreatment with E 3 μg/ml. The procedure:
Embryonic day 16 timed pregnant CD1 out-bred mice were obtained from Charles River Laboratories (Charles River; QC, Canada). Primary cortical neuron cultures were prepared from cerebral cortices of wild type (WT) CD1 mouse embryos as described previously, with the following modifications. Pregnant CD1 females were heavily anaesthetized with isoflurane vapor (Benson Medical Industries, Inc., Markham, ON) before being euthanized by decapitation. The embryonic day 16 (E16) fetuses were immediately removed from the sacrificed pregnant females by cesarean section and placed in ice-cold Hank's Balanced Salt Solution (HBSS) (GIBCO; Invitrogen, Amarillo, Calif.). The meninges were removed from the brains and cortices were isolated under a dissecting microscope. The cortices from each embryo were placed in individual wells of a 24-well plate (Corning; Lowell, Mass.), containing 1 ml of ice-cold PBS (GIBCO; […] Under sterile conditions, the tissue was briefly minced, transferred to 15 ml sterile conical tubes (Corning; Lowell, Mass.) and centrifuged at 350×g for 3 min at room temperature. The dissecting solution was discarded and the cortical neurons were then dissociated trituration with fire-polished glass pipettes followed by incubating in 1 ml of 0.1% trypsin solution (0.1% w/v trypsin (Invitrogen, Amarillo, Calif.) in PBS with 1 mM Mg^2+ and 13 mM glucose) at 37° C. for 15 min. The trypsinization was inhibited by the addition of 0.5 ml of trypsin inhibitor solution that also contained DNase I (0.06% w/v trypsin inhibitor (Invitrogen; Amarillo, Calif.) and 0.01% DNase I (Invitrogen; […] The tubes were mixed briefly and the cells were centrifuged at 350×g for 3 min at room temperature. The trypsin and inhibitor solutions were discarded and each cell pellet was suspended in 1 ml of cortical neuron plating medium (Neurobasal medium (Invitrogen, Amarillo, Calif.) with 10% fetal bovine serum (GIBCO; Invitrogen; Amarillo, Calif.), 2% B27 supplement, 1 mM L-glutamine, and 1% Gentamycin (Invitrogen; […] Cortical neurons were plated in 96-well plates (Corning; Lowell, Mass.) that were pre-coated with poly-D-lysine (PDL; Sigma-Aldrich; Oakville, ON) according to the procedure described by the manufacturer. Briefly, plates were coated immediately before use with 100 μg/ml PDL for 5-10 min (50 μl/well), washed three times with tissue-culture grade water and left to dry for 2 h before cells were introduced. Cortical neurons were plated at a concentration of 1×10^6 cells/ml (100 µl/well) and medium was completely changed the day after plating to serum-free cortical neuron medium (Neurobasal medium with 2% B27 supplement, 5 mM HEPES, 0.5 mM L-glutamine, and 20 μg/ml Gentamycin), which was replaced every 3 days in culture. Cultures were maintained in a humidified, 37° C. incubator with 5% CO2. Experiments were performed on the eighth day in vitro (DIV10). For measurements of mitochondrial membrane potential (ΔΨm), cells were loaded with 25 nM tetrannethylrhodamine methyl ester (TMRM) for 30 min at room temperature and the dye was present during the experiment. TMRM is used in the redistribution mode to assess ΔΨm with a reduction in TMRM fluorescence indicating mitochondrial depolarization. Neurons were loaded for 30 min at room temperature with X-rhod-1 AM (0.5 μM) and Fluo-3 AM (0.5 μM) (Molecular Probes, Invitrogen) prior to imaging in HEPES-buffered salt solution (HBSS) composed of (mM): 156 NaCl, 3 KCl, 2 MgSO4, 1.25 KH2PO4, 2 CaCl2, 10 glucose and 10 HEPES, pH adjusted to 7.35 with NaOH. Confocal images were obtained using a 510 CLSM (Zeiss, Thornwood, N.Y.) equipped with a META detection system and a […] oil-immersion objective. The 488 nm Argon laser line was used to excite fluo-3 fluorescence, which was measured using a bandpass filter from 505 to 550 nm. Illumination intensity was kept to a minimum (at 0.1-0.2% of laser output) to avoid phototoxicity and the pinhole was set to give an optical slice of 2 μm. […]

Setting [1] is: ten minutes after addition, fluo-3.
The mark [2] stands for this setting: sequential addition of 0.3 and 1 μM.

As to `Oc1cc(O)c2c(c1)O[C@H](c1ccc(O)c(O)c1)[C@H](O)C2` [E, (2R,3R)-2-(3,4-dihydroxyphenyl)-3,4-dihydro-2H-chromene-3,5,7-triol], the “number / frequency of [Ca2+]c oscillations in cortical neurons” value is given as “enhanced the frequency”. Moreover, under “3 μg/ml (~10 μM) alone”, the “[Ca2+]c oscillations in a cortical neuron” value is given as “did not trigger” and the “[Ca2+]m (mitochondrial) oscillations, x-rhod-1” value was “did not trigger”. For the setting “3 μg/ml (~10 μM) alone, listed as epicatechin”, the “[Ca2+]c oscillations in a cortical neuron” value is “did not increase”. In addition, the “number of neurons displaying elevated [Ca2+]c / oscillations” value (“number … [Ca2+]c / oscillations” below) under setting [1] was “no change”. Where the note is “ten minutes after addition, fluo-3, listed as epicatechin”, the “number … [Ca2+]c / oscillations” value was “did not increase”.
In the case of `O=c1c(O)c(-c2ccc(O)c(O)c2)oc2cc(O)cc(O)c12` [Q], the “number / frequency of [Ca2+]c oscillations in cortical neurons” value is on record as “supra-additive increase”. In addition, the “number of neurons displaying [Ca2+]c oscillations” value (1 μg/ml (~3 μM), ten minutes after addition, fluo-3) is listed as “small increase”. Besides, the “number of neurons displaying [Ca2+]c oscillations” value (1 μg/ml (~3 μM), ten minutes after addition, fluo-3, listed as quercetin) was “increased”. Moreover, the “number … [Ca2+]c / oscillations” value under setting [1] is “further elevation”. Further, the “number … [Ca2+]c / oscillations” value (ten minutes after addition, fluo-3, listed as quercetin) is “increased”. In addition, the “frequency of neuronal [Ca2+]c oscillations” value (1 and 3 μg/ml (~3-10 μM), concentration-dependent) is recorded as “increased the frequency”. Besides, the “mitochondrial membrane potential (TMRM)” value (1 and 3 μg/ml (~3 and 10 μM)) was “modestly elevated”. Moreover, the “[Ca2+]m (mitochondrial) oscillations, x-rhod-1” value (Q 3 μg/ml added after E 3 μg/ml) is given as “induction”. Where the note is “Q 3 μg/ml added after E 3 μg/ml, ten minutes later”, the “number of neurons displaying [Ca2+]c oscillations” value is recorded as “did increase”. Besides, the “number of neurons displaying [Ca2+]c oscillations” value (Q 3 μg/ml added after E 3 μg/ml, ten minutes later, listed as quercetin) is “increased”. For the same compound, under setting [2], the “[Ca2+]c oscillations (fluo-4)” value is “concentration dependent stimulation”, the “basal [Ca2+]c” value is “moderate rise” and the “mitochondrial membrane potential (TMRM)” value is on record as “elevation”.
